Key:
[1] = Metabolic stability in rat liver microsomes assessed as intrinsic clearance; format: ADME, Microsome; conditions: read-out: CLH
Autotaxin [2] = biological target: T1, Autotaxin (Homo sapiens, UniProt Q13822)
Description: Inhibition of human recombinant ATX expressed in HEK293 cells assessed as inhibition of choline release using LPC (18:1) as substrate preincubated with enzyme for 20 mins followed by substrate addition and measured every 2 mins for 40 mins by resurofin-based fluorescence analysis

[3] = Metabolic stability in human liver microsomes assessed as intrinsic clearance; format: ADME, Microsome; conditions: read-out: CLH
[4] = biological target: Voltage-gated inwardly rectifying potassium channel KCNH2 (Homo sapiens, UniProt Q12809); test: Inhibition of human ERG expressed in CHO-K1 cells by automated Qpatch clamp assay
[5] = Passive Permeability of the compound across artificial membrane assessed as fraction absorbed by PAMPA assay
[6] = Tmax in Sprague-Dawley rat at 10 mg/kg, po; format: ADME, organism-based; conditions: in vivo
[7] = (§1) In vivo inhibition of ATX in po dosed Sprague-Dawley rat assessed as inhibition of LPA formation in serum by LC-MS analysis; format: functional, organism-based
Rattus norvegicus = test: as §1; format: functional, organism-based
Autotaxin [8] = biological target: T1, Autotaxin; test: Inhibition of ATX in human serum assessed as reduction in LPA (18:1) level by LC-MS analysis; format: cell-free
[9] = Oral bioavailability in Sprague-Dawley rat at 10 mg/kg; format: ADME, organism-based; conditions: in vivo
[10] = Cmax in Sprague-Dawley rat at 10 mg/kg, po; format: ADME, organism-based; set-up: route oral, dose 10 mg/kg; conditions: in vivo
[11] = AUC (0 to infinity) in Sprague-Dawley rat at 10 mg/kg, po; format: ADME, organism-based; set-up: route oral, time infinity, dose 10 mg/kg; conditions: in vivo
[12] = Volume of distribution at steady state in Sprague-Dawley rat at 1 mg/kg, iv; format: ADME, organism-based; conditions: in vivo, read-out: Vdss
[13] = Clearance in Sprague-Dawley rat at 1 mg/kg, iv; format: ADME, organism-based; conditions: in vivo
[14] = Half life in Sprague-Dawley rat at 1 mg/kg, iv; format: ADME, organism-based; conditions: in vivo
[15] = Equilibrium solubility of compound at pH 6.8; format: physicochemical; conditions: buffer

Chain of Voltage-gated inwardly rectifying potassium channel KCNH2 (Q12809 whole entry): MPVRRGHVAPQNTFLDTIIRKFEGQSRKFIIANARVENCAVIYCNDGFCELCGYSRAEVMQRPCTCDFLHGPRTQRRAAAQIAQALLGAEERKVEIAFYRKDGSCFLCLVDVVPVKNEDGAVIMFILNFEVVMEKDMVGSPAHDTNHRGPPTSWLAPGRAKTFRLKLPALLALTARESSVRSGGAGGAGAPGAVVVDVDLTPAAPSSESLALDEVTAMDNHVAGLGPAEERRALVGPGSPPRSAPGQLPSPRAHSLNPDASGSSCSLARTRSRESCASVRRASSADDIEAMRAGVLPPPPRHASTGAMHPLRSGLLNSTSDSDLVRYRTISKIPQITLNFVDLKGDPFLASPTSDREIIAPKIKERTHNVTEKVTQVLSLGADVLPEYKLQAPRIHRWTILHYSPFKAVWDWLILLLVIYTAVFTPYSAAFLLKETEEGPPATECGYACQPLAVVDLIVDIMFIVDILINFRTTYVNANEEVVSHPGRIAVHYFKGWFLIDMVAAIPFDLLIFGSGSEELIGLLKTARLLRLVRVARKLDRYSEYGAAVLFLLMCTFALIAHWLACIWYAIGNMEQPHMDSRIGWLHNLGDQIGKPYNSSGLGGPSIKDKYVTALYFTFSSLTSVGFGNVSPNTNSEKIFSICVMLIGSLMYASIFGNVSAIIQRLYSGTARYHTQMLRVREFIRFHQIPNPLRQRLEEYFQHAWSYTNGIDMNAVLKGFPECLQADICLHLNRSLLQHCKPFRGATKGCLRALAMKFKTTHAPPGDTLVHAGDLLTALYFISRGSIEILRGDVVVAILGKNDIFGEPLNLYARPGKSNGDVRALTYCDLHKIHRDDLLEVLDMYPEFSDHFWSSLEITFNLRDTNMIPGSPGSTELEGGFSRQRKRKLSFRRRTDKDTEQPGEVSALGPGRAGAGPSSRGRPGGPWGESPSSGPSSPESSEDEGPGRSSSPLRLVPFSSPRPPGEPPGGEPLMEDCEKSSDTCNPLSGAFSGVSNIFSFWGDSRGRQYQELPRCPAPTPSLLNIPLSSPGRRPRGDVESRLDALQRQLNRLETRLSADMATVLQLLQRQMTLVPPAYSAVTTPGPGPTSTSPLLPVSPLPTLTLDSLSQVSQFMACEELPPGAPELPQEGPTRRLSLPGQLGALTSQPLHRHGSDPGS

Structure (SMILES) | microsomal CLint [1] [µL/min/mg] | IC50 (Autotaxin [2]) [nM] | IC50 [4] [µM] | also measured
Cc1nnn(Cc2cc(Cl)ccc2/C=C/C(=O)N2CCN(C(=O)c3ccc(F)cc3)CC2)n1 | 71 | 1600 | – | –
Cc1noc(Cc2cc(Cl)ccc2/C=C/C(=O)N2CCN(Cc3ccc(F)cc3)C[C@H]2C)n1 | 580 | 18 | – | –
Cc1nnn(Cc2cc(Cl)ccc2/C=C/C(=O)N2CCN(Cc3ccc(F)cc3)C[C@H]2C)n1 | 510 | 9.6 | – | microsomal CLint [3]: 230 µL/min/mg
Cc1nnn(Cc2cc(Cl)ccc2/C=C/C(=O)N2CCNC[C@H]2C)n1 | 84 | 95 | – | –
Cc1cnn(Cc2cc(Cl)ccc2/C=C/C(=O)N2CCN(Cc3ccc(F)cc3)C[C@H]2C)n1 | 690 | 5.9 | – | –
Cc1nnn(Cc2cc(C(F)(F)F)ccc2/C=C/C(=O)N2CCC(C#N)CC2)n1 | 28 | 790 | 25 | Fa [5]: 27%
Cc1nnn(Cc2cc(Cl)ccc2/C=C/C(=O)N2CCN(Cc3ccc(F)cc3)CC2)n1 | 470 | 20 | – | –
Cc1nnn(Cc2cc(C(F)(F)F)ccc2/C=C/C(=O)N2CCC(c3noc(C)n3)CC2)n1 | 35 | – | > 30 | microsomal CLint [3]: 19 µL/min/mg
Cc1nnn(Cc2cc(Cl)ccc2CCC(=O)N2CCN(Cc3ccc(F)cc3)C[C@H]2C)n1 | > 920 | 19 | – | –
Cc1nnn(Cc2cc(C(F)(F)F)ccc2/C=C/C(=O)N2CCC(C(F)(F)F)CC2)n1 | 41 | 13 | – | –
C[C@@H]1CN(Cc2ccc(F)cc2)CCN1C(=O)/C=C/c1ccc(Cl)cc1Cn1ncnn1 | 730 | 16 | – | –

Further lines, with some results ahead:

microsomal CLint [1] [µL/min/mg] | IC50 (Autotaxin [2]) [nM] | Structure (SMILES) | IC50 [4] [µM] | also measured
87 | 26 | Cc1cc(CN2CCN(C(=O)/C=C/c3ccc(Cl)cc3Cn3nnc(C)n3)CC2=O)on1 | – | –
520 | 9.2 | COc1ccc(CN2CCN(C(=O)/C=C/c3ccc(Cl)cc3Cn3nnc(C)n3)CC2)cc1 | – | –
190 | – | COc1ccc(CN2CCN(C(=O)/C=C/c3ccc(Cl)cc3Cn3nnc(C)n3)CC2)nc1 | 1.9 | –
89 | 60 | Cc1nnn(Cc2cc(C(F)(F)F)ccc2/C=C/C(=O)N2CCC(Cl)CC2)n1 | > 30 | Fa [5]: 89%
89 | – | Cc1nnn(Cc2cc(Cl)ccc2/C=C/C(=O)N2CCC(Cc3nnc(C)o3)CC2)n1 | > 30 | –
15 | 16 | Cc1ncn(C2CCN(C(=O)/C=C/c3ccc(C(F)(F)F)cc3Cn3nnc(C)n3)CC2)n1 | 25 | microsomal CLint [3]: 16 µL/min/mg
36 | – | Cc1noc(C2CCN(C(=O)/C=C/c3ccc(C(F)(F)F)cc3Cn3nnc(C)n3)CC2)n1 | – | –
49 | – | Cc1nnn(Cc2cc(Cl)ccc2/C=C/C(=O)N2CCN(Cc3cnn(C)c3)CC2)n1 | 15 | –
570 | – | Cc1nnn(Cc2cc(Cl)ccc2/C=C/C(=O)N2CCC(Cc3ncc(C)o3)CC2)n1 | – | –
88 | – | Cc1cc(CN2CCN(C(=O)/C=C/c3ccc(Cl)cc3Cn3nnc(C)n3)CC2)on1 | 12 | –
19 | – | Cc1nnn(Cc2cc(C(F)(F)F)ccc2/C=C/C(=O)N2CCC(c3nnc(C)o3)CC2)n1 | 23 | Tmax [6]: 78 min; IC50 [7]: 5 nM; inhibition (Rattus norvegicus): Dose-dependent effect; IC50 (Autotaxin [8]): 12 nM; bioavailability [9]: 94%; Cmax [10]: 5.1 µM; AUC [11]: 23.2 µM·h; Vd [12]: 1.8 L/kg; clearance [13]: 15 mL/min/kg; half-life [14]: 216 min; microsomal CLint [3]: 13 µL/min/mg
72 | – | Cc1nnn(Cc2cc(Cl)ccc2/C=C/C(=O)N2CCN(Cc3coc(C)n3)CC2)n1 | 23 | Tmax [6]: 24 min; bioavailability [9]: 52%; Cmax [10]: 2.8 µM; AUC [11]: 4.4 µM·h; Vd [12]: 1.6 L/kg; clearance [13]: 45 mL/min/kg; solubility thermodynamic [15]: > 1000 µM; half-life [14]: 48 min

From ChEMBL document CHEMBL4673273, “Development of autotaxin inhibitors: A series of tetrazole cinnamides” (Bioorg Med Chem Lett, 2021)
